In patent US20110301087A1, “CRF1 RECEPTOR COMPOUNDS” (priority 2008, published 2011):
Where a SMILES comes first, the peptide text is derived from it. The star is where a group is joined. Palmitoyl = CCCCCCCCCCCCCCCC(=O)*

Target: T1, CRF1 (Homo sapiens, UniProt P34998)
T1 construct: endogenously expresses functional CRF1; endogenous in cells; host or cells: Y-79 human retinoblastoma cells
T1 sequence (P34998 24-415): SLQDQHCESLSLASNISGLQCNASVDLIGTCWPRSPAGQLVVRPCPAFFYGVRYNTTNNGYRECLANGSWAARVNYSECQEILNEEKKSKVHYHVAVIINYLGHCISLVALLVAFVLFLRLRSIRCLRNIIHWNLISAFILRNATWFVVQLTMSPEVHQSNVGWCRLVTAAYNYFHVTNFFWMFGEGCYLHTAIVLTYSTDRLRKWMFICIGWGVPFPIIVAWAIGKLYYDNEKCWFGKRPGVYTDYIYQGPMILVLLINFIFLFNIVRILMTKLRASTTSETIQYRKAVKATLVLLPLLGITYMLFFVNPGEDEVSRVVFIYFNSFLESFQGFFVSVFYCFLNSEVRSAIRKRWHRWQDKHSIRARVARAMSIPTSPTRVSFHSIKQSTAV
Experiment: CRF1 assessment of cAMP (HTRF cAMP assay) in Y-79 cells, antagonist mode
Assay type: cell-based
Conditions: Y79 cells; for IC50: CRF1 cAMP screening, against agonist; for inhibition at 0.3 µM: 300 nM pepducin against agonist dose response, read-out: % Inhibition (± SD)
Source text: HTRF (homogeneous time resolved fluorescence) is a technology developed by Cisbio Bioassays based on TR-FRET (time-resolved fluorescence resonance energy transfer). Cisbio Bioassays has developed a wide selection of HTRF-based assays compatible with whole cells, thereby enabling functional assays run under more physiological conditions. cAMP kits are based on a competitive immunoassay using cryptate-labeled anti-cAMP antibody and d2-labeled cAMP. This assay allows the measurement of increase in intracellular cAMP upon Gs-coupled receptor activation as well as decrease in forskolin stimulated increase in cAMP upon Gi-coupled receptor activation. Cells expressing CRF1 endogenously or via transfection can be used to assess compound pharmacology using cAMP assays as a means to measure the activity of adenylyl cyclase resulting from CRF1 activation or inhibition.
An example of the use of the cAMP assay can be assessing CRF activation of CRF1 in Y-79, a human retinoblastoma cell line which endogenously expresses functional CRF1. Y-79 cells were seeded into 96-well half area black plates at 30K/well in Hank's balanced salt solution with 50 mM HEPES, 0.1% BSA, 200 uM IBMX. Compounds to be tested for agonist activity were added to cells, incubated for 30 minutes at 37 degrees C. and assayed for cAMP concentration. To test for antagonist activity, compounds to be tested were added to cells, followed by the addition of agonist at an experimentally determined optimal concentration, generally the EC80. Plates were incubated for 30 minutes at 37 degrees C. and assayed for cAMP. To determine concentration of cAMP in each well, d2-labeled cAMP in Conjugate/Lysis buffer was added to wells. This addition lysed the cells and input a known concentration of labeled cAMP. This was followed by the addition of anti-cAMP antibody conjugated to cryptate. FRET occurs when cryptate-labeled antibody binds to d2-labeled cAMP. Therefore, the specific signal is inversely proportional to the concentration of cAMP in the sample. Conversion of signal to concentration of cAMP in the well was accomplished by comparing the FRET signal of sample to a standard curve generated using known concentrations of cAMP.

| SMILES | IC50 | inhibition at 0.3 µM |
| --- | --- | --- |
| CCCCCCCCCCCCCCCC(=O)N[C@@H](CCCNC(=N)N)C(=O)N[C@@H](CC(C)C)C(=O)N[C@@H](CCCNC(=N)N)C(=O)N[C@@H](CO)C(=O)N[C@H](C(=O)N[C@@H](CCCNC(=N)N)C(=O)N[C@@H](CO)C(=O)N[C@@H](CC(C)C)C(=O)N[C@@H](CCCNC(=N)N)C(=O)N[C@@H](CC(N)=O)C(=O)N[C@H](C(=O)N[C@H](C(=O)N[C@@H](Cc1c[nH]cn1)C(=O)N[C@@H](Cc1c[nH]c2ccccc12)C(=O)N[C@@H](CC(N)=O)C(N)=O)[C@@H](C)CC)[C@@H](C)CC)[C@@H](C)CC [Compound 5] (Palmitoyl-RLRSIRSLRNIIHWN-NH2) | 1000 to 5000 nM | 54 ± 13% |
| CCCCCCCCCCCCCCCC(=O)NCC(=O)N[C@@H](CO)C(=O)NCC(=O)N[C@@H](CCCNC(=N)N)C(=O)N[C@@H](CC(C)C)C(=O)N[C@@H](CCCNC(=N)N)C(=O)N[C@@H](CCCCN)C(=O)N[C@@H](Cc1c[nH]c2ccccc12)C(=O)N[C@@H](CCSC)C(=O)N[C@@H](Cc1ccccc1)C(=O)N[C@H](C(N)=O)[C@@H](C)CC [Compound 26] (Palmitoyl-GSGRLRKWMFI-NH2) | 1000 to 5000 nM | 63% |
| CCCCCCCCCCCCCCCC(=O)NCC(=O)N[C@@H](CO)C(=O)N[C@@H](CCCNC(=N)N)C(=O)N[C@@H](CC(C)C)C(=O)N[C@@H](CCCNC(=N)N)C(=O)N[C@@H](CCCCN)C(=O)N[C@@H](Cc1c[nH]c2ccccc12)C(=O)N[C@@H](CCSC)C(=O)N[C@@H](Cc1ccccc1)C(=O)N[C@H](C(N)=O)[C@@H](C)CC [Compound 28] (Palmitoyl-GSRLRKWMFI-NH2) | 1000 to 5000 nM | 52 ± 5% |
| CCCCCCCCCCCCCCCC(=O)NCC(=O)N[C@@H](CO)C(=O)N[C@H](C(=O)N[C@@H](CC(=O)O)C(=O)N[C@@H](CCCNC(=N)N)C(=O)N[C@@H](CC(C)C)C(=O)N[C@@H](CCCNC(=N)N)C(=O)N[C@@H](CCCCN)C(=O)N[C@@H](Cc1c[nH]c2ccccc12)C(=O)N[C@@H](CCSC)C(=O)N[C@@H](Cc1ccccc1)C(=O)N[C@H](C(N)=O)[C@@H](C)CC)[C@@H](C)O [Compound 29, Pal-GSTDRLRKWMFI-amide] (Palmitoyl-GSTDRLRKWMFI-NH2) | 501 to 1000 nM | 53 ± 14% |
| CCCCCCCCCCCCCCCC(=O)N[C@@H](CCCNC(=N)N)C(=O)N[C@@H](CC(C)C)C(=O)N[C@@H](CCCNC(=N)N)C(=O)N[C@@H](CCCCN)C(=O)N[C@@H](Cc1c[nH]c2ccccc12)C(=O)N[C@@H](CCSC)C(=O)N[C@@H](Cc1ccccc1)C(=O)N[C@H](C(N)=O)[C@@H](C)CC [Compound 30] (Palmitoyl-RLRKWMFI-NH2) | 1000 to 5000 nM | 39 ± 7% |
| CCCCCCCCCCCCCCCC(=O)N[C@@H](CC(=O)O)C(=O)N[C@@H](CCCNC(=N)N)C(=O)N[C@@H](CC(C)C)C(=O)N[C@@H](CCCNC(=N)N)C(=O)N[C@@H](CCCCN)C(=O)N[C@@H](Cc1c[nH]c2ccccc12)C(=O)N[C@@H](CCSC)C(=O)N[C@@H](Cc1ccccc1)C(=O)N[C@H](C(N)=O)[C@@H](C)CC [Compound 31] (Palmitoyl-DRLRKWMFI-NH2) | 1000 to 5000 nM | 30 ± 17% |
| CCCCCCCCCCCCCCCC(=O)N[C@H](C(=O)N[C@@H](CC(=O)O)C(=O)N[C@@H](CCCNC(=N)N)C(=O)N[C@@H](CC(C)C)C(=O)N[C@@H](CCCNC(=N)N)C(=O)N[C@@H](CCCCN)C(=O)N[C@@H](Cc1c[nH]c2ccccc12)C(=O)N[C@@H](CCSC)C(=O)N[C@@H](Cc1ccccc1)C(=O)N[C@H](C(N)=O)[C@@H](C)CC)[C@@H](C)O [Compound 32, Pal-TDRLRKWMFI-amide] (Palmitoyl-TDRLRKWMFI-NH2) | 501 to 1000 nM | 53 ± 9% |
| CCCCCCCCCCCCCCCC(=O)N[C@@H](CO)C(=O)N[C@H](C(=O)N[C@@H](CC(=O)O)C(=O)N[C@@H](CCCNC(=N)N)C(=O)N[C@@H](CC(C)C)C(=O)N[C@@H](CCCNC(=N)N)C(=O)N[C@@H](CCCCN)C(=O)N[C@@H](Cc1c[nH]c2ccccc12)C(=O)N[C@@H](CCSC)C(=O)N[C@@H](Cc1ccccc1)C(=O)N[C@H](C(N)=O)[C@@H](C)CC)[C@@H](C)O [Compound 33] (Palmitoyl-STDRLRKWMFI-NH2) | 1000 to 5000 nM | 36 ± 9% |
| CCCCCCCCCCCCCCCC(=O)N[C@@H](Cc1ccc(O)cc1)C(=O)N[C@@H](CO)C(=O)N[C@H](C(=O)N[C@@H](CC(=O)O)C(=O)N[C@@H](CCCNC(=N)N)C(=O)N[C@@H](CC(C)C)C(=O)N[C@@H](CCCNC(=N)N)C(=O)N[C@@H](CCCCN)C(=O)N[C@@H](Cc1c[nH]c2ccccc12)C(=O)N[C@@H](CCSC)C(=O)N[C@@H](Cc1ccccc1)C(=O)N[C@H](C(N)=O)[C@@H](C)CC)[C@@H](C)O [Compound 34] (Palmitoyl-YSTDRLRKWMFI-NH2) | 501 to 1000 nM | 21 ± 5% |
| CCCCCCCCCCCCCCCC(=O)NCC(=O)N[C@@H](CO)C(=O)N[C@H](C(=O)N[C@@H](CC(=O)O)C(=O)N[C@@H](CCCNC(=N)N)C(=O)N[C@@H](CC(C)C)C(=O)N[C@@H](CCCNC(=N)N)C(=O)N[C@@H](CCCCN)C(=O)N[C@@H](Cc1c[nH]c2ccccc12)C(=O)N[C@@H](CCSC)C(=O)N[C@@H](Cc1ccccc1)C(=O)N[C@@H](C)C(N)=O)[C@@H](C)O [Compound 37] (Palmitoyl-GSTDRLRKWMFA-NH2) | 1000 to 5000 nM | 45 ± 19% |
| CCCCCCCCCCCCCCCC(=O)NCC(=O)N[C@@H](CO)C(=O)N[C@H](C(=O)N[C@@H](CC(=O)O)C(=O)N[C@@H](CCCNC(=N)N)C(=O)N[C@@H](CC(C)C)C(=O)N[C@@H](CCCNC(=N)N)C(=O)N[C@@H](CCCCN)C(=O)N[C@@H](Cc1c[nH]c2ccccc12)C(=O)N[C@@H](CCSC)C(=O)N[C@@H](C)C(=O)N[C@H](C(N)=O)[C@@H](C)CC)[C@@H](C)O [Compound 38] (Palmitoyl-GSTDRLRKWMAI-NH2) | 1000 to 5000 nM | 60 ± 8% |
| CCCCCCCCCCCCCCCC(=O)NCC(=O)N[C@@H](CO)C(=O)N[C@H](C(=O)N[C@@H](CC(=O)O)C(=O)N[C@@H](CCCNC(=N)N)C(=O)N[C@@H](CC(C)C)C(=O)N[C@@H](CCCNC(=N)N)C(=O)N[C@@H](CCCCN)C(=O)N[C@@H](C)C(=O)N[C@@H](CCSC)C(=O)N[C@@H](Cc1ccccc1)C(=O)N[C@H](C(N)=O)[C@@H](C)CC)[C@@H](C)O [Compound 40] (Palmitoyl-GSTDRLRKAMFI-NH2) | 501 to 1000 nM | 61 ± 20% |
| CCCCCCCCCCCCCCCC(=O)N[C@@H](CCCNC(=N)N)C(=O)N[C@@H](CC(C)C)C(=O)N[C@@H](CCCNC(=N)N)C(=O)N[C@@H](CCCCN)C(=O)N[C@@H](Cc1c[nH]c2ccccc12)C(=O)N[C@@H](CCSC)C(=O)N[C@@H](C)C(=O)N[C@H](C(N)=O)[C@@H](C)CC [Compound 41] (Palmitoyl-RLRKWMAI-NH2) | 501 to 1000 nM | 40% |
| CCCCCCCCCCCCCCCC(=O)N[C@@H](CC(=O)O)C(=O)N[C@@H](CCCNC(=N)N)C(=O)N[C@@H](CC(C)C)C(=O)N[C@@H](CCCNC(=N)N)C(=O)N[C@@H](CCCCN)C(=O)N[C@@H](Cc1c[nH]c2ccccc12)C(=O)N[C@@H](CCSC)C(=O)N[C@@H](C)C(=O)N[C@H](C(N)=O)[C@@H](C)CC [Compound 42] (Palmitoyl-DRLRKWMAI-NH2) | 5000 to 10000 nM | 65% |
| CCCCCCCCCCCCCCCC(=O)N[C@H](C(=O)N[C@@H](CC(=O)O)C(=O)N[C@@H](CCCNC(=N)N)C(=O)N[C@@H](CC(C)C)C(=O)N[C@@H](CCCNC(=N)N)C(=O)N[C@@H](CCCCN)C(=O)N[C@@H](Cc1c[nH]c2ccccc12)C(=O)N[C@@H](CCSC)C(=O)N[C@@H](C)C(=O)N[C@H](C(N)=O)[C@@H](C)CC)[C@@H](C)O [Compound 43] (Palmitoyl-TDRLRKWMAI-NH2) | > 10000 nM | 48% |
| CCCCCCCCCCCCCCCC(=O)N[C@@H](C)C(=O)N[C@@H](CC(=O)O)C(=O)N[C@@H](CCCNC(=N)N)C(=O)N[C@@H](CC(C)C)C(=O)N[C@@H](CCCNC(=N)N)C(=O)N[C@@H](CCCCN)C(=O)N[C@@H](Cc1c[nH]c2ccccc12)C(=O)N[C@@H](CCSC)C(=O)N[C@@H](Cc1ccccc1)C(=O)N[C@H](C(N)=O)[C@@H](C)CC [Compound 44] (Palmitoyl-ADRLRKWMFI-NH2) | > 10000 nM | 42% |
